The target of the assay is T1, full-length ATR (Homo sapiens, UniProt Q13535).
T1 construct: Assays were carried out at 25° C. in the presence of 5 nM full-length ATR
Description: ATR Inhibition Assay (radioactive-phosphate incorporation). The class given is biochemical. To be noted: Ki(app); 5 nM full-length ATR, 10 μM ATP, 800 μM target peptide, 25° C. As to the method: Compounds were screened for their ability to inhibit ATR kinase using a radioactive-phosphate incorporation assay. Assays were carried out in a mixture of 50 mM Tris/HCl (pH 7.5), 10 mM MgCl2 and 1 mM DTT. Final substrate concentrations were 10 μM [γ-33P]ATP (3mCi 33P ATP/mmol ATP, Perkin Elmer) and 800 μM target peptide (ASELPASQPQPFSAKKK).
Assays were carried out at 25° C. in the presence of 5 nM full-length ATR. An assay stock buffer solution was prepared containing all of the reagents listed above, with the exception of ATP and the test compound of interest. 13.5 μL of the stock solution was placed in a 96 well plate followed by addition of 2 μL of DMSO stock containing serial dilutions of the test compound (typically starting from a final concentration of 15 μM with 3-fold serial dilutions) in duplicate (final DMSO concentration 7%). The plate was pre-incubated for 10 minutes at 25° C. and the reaction initiated by addition of 15 μL [γ-33P]ATP (final concentration 10 μM).
The reaction was stopped after […] by the addition of 30 μL 0.1M phosphoric acid containing 2 mM ATP. A multiscreen phosphocellulose filter 96-well plate (Millipore, Cat no. MAPHN0B50) was pretreated with 100 μL 0.2M phosphoric acid prior to the addition of 45 μL of the stopped assay mixture. The plate was washed with 5×200 μL 0.2M phosphoric acid. After drying, 100 μL Optiphase ‘SuperMix’ liquid scintillation cocktail (Perkin Elmer) was added to the well prior to scintillation counting (1450 Microbeta Liquid Scintillation Counter, Wallac).
After removing mean background values for all of the data points, Ki(app) data were calculated from non-linear regression analysis of the initial rate data using the Prism software package (GraphPad Prism version 3.0cx for Macintosh, GraphPad Software, San Diego Calif., USA).

Some results are limits rather than exact numbers.

T1 sequence (Q13535 whole entry): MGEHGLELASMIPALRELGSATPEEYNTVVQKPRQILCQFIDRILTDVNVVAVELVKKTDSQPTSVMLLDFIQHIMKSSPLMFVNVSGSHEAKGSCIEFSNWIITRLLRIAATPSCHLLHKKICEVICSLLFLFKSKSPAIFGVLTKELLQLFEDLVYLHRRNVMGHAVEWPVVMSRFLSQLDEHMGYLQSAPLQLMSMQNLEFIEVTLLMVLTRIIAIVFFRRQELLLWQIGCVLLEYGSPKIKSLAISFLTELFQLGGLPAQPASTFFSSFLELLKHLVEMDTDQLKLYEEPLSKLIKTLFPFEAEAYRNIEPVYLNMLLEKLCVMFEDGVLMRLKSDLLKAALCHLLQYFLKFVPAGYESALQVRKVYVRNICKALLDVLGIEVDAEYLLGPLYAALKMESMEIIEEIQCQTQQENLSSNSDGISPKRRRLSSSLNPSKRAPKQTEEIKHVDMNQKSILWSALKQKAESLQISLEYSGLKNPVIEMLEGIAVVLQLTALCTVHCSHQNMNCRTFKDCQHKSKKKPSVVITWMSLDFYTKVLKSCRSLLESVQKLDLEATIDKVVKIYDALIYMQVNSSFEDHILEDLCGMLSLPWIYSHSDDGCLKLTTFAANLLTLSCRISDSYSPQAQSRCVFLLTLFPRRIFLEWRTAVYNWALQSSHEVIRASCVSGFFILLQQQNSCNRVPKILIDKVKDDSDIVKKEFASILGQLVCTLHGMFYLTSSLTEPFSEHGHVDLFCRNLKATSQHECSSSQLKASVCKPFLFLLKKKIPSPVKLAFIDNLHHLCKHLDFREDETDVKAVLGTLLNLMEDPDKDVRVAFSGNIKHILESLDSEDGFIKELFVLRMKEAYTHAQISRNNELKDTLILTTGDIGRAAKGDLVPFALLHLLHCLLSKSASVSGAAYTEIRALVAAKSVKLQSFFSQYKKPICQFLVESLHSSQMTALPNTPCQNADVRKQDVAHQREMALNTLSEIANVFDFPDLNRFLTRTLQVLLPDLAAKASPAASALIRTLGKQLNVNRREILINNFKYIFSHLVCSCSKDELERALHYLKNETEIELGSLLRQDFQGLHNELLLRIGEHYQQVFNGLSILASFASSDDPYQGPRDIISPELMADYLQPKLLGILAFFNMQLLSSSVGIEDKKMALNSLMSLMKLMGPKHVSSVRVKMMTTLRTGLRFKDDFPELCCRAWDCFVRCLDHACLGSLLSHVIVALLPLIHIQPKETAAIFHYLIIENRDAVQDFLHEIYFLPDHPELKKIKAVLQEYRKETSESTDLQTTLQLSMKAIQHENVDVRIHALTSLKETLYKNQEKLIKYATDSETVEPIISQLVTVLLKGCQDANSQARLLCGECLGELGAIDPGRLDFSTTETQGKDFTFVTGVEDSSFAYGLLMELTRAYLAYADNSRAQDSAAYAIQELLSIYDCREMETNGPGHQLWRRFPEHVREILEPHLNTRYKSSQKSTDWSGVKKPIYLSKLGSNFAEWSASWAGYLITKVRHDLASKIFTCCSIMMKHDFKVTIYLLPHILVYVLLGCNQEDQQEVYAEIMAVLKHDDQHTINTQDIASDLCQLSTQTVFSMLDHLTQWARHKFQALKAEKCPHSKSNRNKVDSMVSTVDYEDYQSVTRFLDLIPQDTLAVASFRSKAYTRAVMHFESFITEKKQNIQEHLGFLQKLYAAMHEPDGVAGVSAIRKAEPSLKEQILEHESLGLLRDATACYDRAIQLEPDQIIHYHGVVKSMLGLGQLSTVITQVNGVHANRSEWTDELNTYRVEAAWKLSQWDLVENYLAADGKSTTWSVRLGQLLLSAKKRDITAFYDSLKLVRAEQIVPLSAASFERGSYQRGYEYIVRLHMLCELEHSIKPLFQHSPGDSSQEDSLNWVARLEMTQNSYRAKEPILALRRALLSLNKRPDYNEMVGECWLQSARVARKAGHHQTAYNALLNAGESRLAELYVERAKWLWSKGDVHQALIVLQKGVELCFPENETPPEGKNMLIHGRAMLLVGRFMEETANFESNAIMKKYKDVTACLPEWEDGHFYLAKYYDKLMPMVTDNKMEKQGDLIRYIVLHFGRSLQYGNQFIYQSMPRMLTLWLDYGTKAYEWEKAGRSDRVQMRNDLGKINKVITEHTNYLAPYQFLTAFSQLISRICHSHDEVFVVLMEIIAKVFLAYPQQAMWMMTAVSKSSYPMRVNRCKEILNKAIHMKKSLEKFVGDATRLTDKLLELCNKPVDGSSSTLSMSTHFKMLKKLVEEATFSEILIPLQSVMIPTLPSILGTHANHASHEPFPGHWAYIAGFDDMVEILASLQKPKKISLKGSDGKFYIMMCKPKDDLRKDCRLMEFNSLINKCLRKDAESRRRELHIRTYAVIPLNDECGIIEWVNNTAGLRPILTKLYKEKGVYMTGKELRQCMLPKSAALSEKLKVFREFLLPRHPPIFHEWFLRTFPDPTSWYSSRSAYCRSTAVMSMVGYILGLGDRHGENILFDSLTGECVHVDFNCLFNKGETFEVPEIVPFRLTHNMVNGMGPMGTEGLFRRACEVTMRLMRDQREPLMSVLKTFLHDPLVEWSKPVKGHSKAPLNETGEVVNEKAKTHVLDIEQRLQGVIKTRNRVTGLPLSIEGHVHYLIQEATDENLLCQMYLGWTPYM

For `CC(C)S(=O)(=O)c1ccc(-c2cnc3[nH]cc(-c4ccc5[nH]ccc5c4)c3n2)cc1` [Compound I-35, 7-(1H-indol-5-yl)-2-(4-isopropylsulfonylphenyl)-5H-pyrrolo[2,3-b]pyrazine], the Ki lay within 10 to 50 nM. The result for `CC(C)S(=O)(=O)c1ccc(-c2cnc3[nH]cc(-c4cc5ccccc5o4)c3n2)cc1` [Compound I-36, 7-(benzofuran-2-yl)-2-(4-isopropylsulfonylphenyl)-5H-pyrrolo[2,3-b]pyrazine] reads 10 to 50 nM; that for `CC(C)S(=O)(=O)c1ccc(-c2cnc3[nH]cc(-c4ccc(N(C)C)nc4)c3n2)cc1` [Compound I-37, 5-[2-(4-isopropylsulfonylphenyl)-5H-pyrrolo[2,3-b]pyrazin-7-yl]-N,N-dimethyl-pyridin-2-amine], 10 to 50 nM; that for `COc1ncc(-c2c[nH]c3ncc(-c4ccc(S(=O)(=O)C(C)C)cc4)nc23)cc1C` [Compound I-38, 2-(4-isopropylsulfonylphenyl)-7-(6-methoxy-5-methyl-3-pyridyl)-5H-pyrrolo[2,3-b]pyrazine], 10 to 50 nM. The result for `COc1cc(-c2c[nH]c3ncc(-c4ccc(S(=O)(=O)C(C)C)cc4)nc23)c(F)cn1` [Compound I-39, 7-(5-fluoro-2-methoxy-4-pyridyl)-2-(4-isopropylsulfonylphenyl)-5H-pyrrolo[2,3-b]pyrazine] reads above 50 nM; that for `CC(C)S(=O)(=O)c1ccc(-c2cnc3[nH]cc(-c4ccc5ncccc5c4)c3n2)cc1` [Compound I-40, 6-[2-(4-isopropylsulfonylphenyl)-5H-pyrrolo[2,3-b]pyrazin-7-yl]quinoline], at most 10 nM. The result for `CC(C)S(=O)(=O)c1ccc(-c2cnc3[nH]cc(-c4cccc5cnccc45)c3n2)cc1` [Compound I-41, 5-[2-(4-isopropylsulfonylphenyl)-5H-pyrrolo[2,3-b]pyrazin-7-yl]isoquinoline] reads above 50 nM; that for `CC(C)S(=O)(=O)c1ccc(-c2cnc3[nH]cc(-c4cncc5ccccc45)c3n2)cc1` [Compound I-42, 4-[2-(4-isopropylsulfonylphenyl)-5H-pyrrolo[2,3-b]pyrazin-7-yl]isoquinoline], 10 to 50 nM. For `CC(C)S(=O)(=O)c1ccc(-c2cnc3[nH]cc(-c4ccnc5ccccc45)c3n2)cc1` [Compound I-43, 4-[2-(4-isopropylsulfonylphenyl)-5H-pyrrolo[2,3-b]pyrazin-7-yl]quinoline], the Ki is above 50 nM. To `CC(C)S(=O)(=O)c1ccc(-c2cnc3[nH]cc(-c4csc5ccccc45)c3n2)cc1` [Compound I-44, 7-(benzothiophen-3-yl)-2-(4-isopropylsulfonylphenyl)-5H-pyrrolo[2,3-b]pyrazine] belongs above 50 nM; to `CC(C)S(=O)(=O)c1ccc(-c2cnc3[nH]cc(-c4cc5ccccc5s4)c3n2)cc1` [Compound I-45, 7-(benzothiophen-2-yl)-2-(4-isopropylsulfonylphenyl)-5H-pyrrolo[2,3-b]pyrazine], 10 to 50 nM. To `COc1ncc(-c2c[nH]c3ncc(-c4ccc(S(=O)(=O)C(C)C)cc4)nc23)c(OC)n1` [Compound I-46, 7-(2,4-dimethoxypyrimidin-5-yl)-2-(4-isopropylsulfonylphenyl)-5H-pyrrolo[2,3-b]pyrazine] belongs above 50 nM; to `CC(C)S(=O)(=O)c1ccc(-c2cnc3[nH]cc(-c4cn[nH]c4)c3n2)cc1` [Compound I-47, 2-(4-(isopropylsulfonyl)phenyl)-7-(1H-pyrazol-4-yl)-5H-pyrrolo[2,3-b]pyrazine], 10 to 50 nM; to `CC(C)S(=O)(=O)c1ccc(-c2cnc3[nH]cc(-c4cncc(S(C)(=O)=O)c4)c3n2)cc1` [Compound I-48, 2-(4-isopropylsulfonylphenyl)-7-(5-methylsulfonyl-3-pyridyl)-5H-pyrrolo[2,3-b]pyrazine], 10 to 50 nM.

With `CC(C)S(=O)(=O)c1ccc(-c2cnc3[nH]cc(-c4ccn(C)n4)c3n2)cc1` [Compound I-49, 2-(4-isopropylsulfonylphenyl)-7-(1-methylpyrazol-3-yl)-5H-pyrrolo[2,3-b]pyrazine], the Ki fell in the range of 10 to 50 nM. The result for `CC(C)S(=O)(=O)c1ccc(-c2cnc3[nH]cc(-c4cnn(C)c4)c3n2)cc1` [Compound I-50, 2-(4-isopropylsulfonylphenyl)-7-(1-methylpyrazol-4-yl)-5H-pyrrolo[2,3-b]pyrazine] reads above 50 nM; that for `Cc1ccc(-c2c[nH]c3ncc(-c4ccc(S(=O)(=O)C(C)C)cc4)nc23)cn1` [Compound I-51, 2-(4-isopropylsulfonylphenyl)-7-(6-methyl-3-pyridyl)-5H-pyrrolo[2,3-b]pyrazine], 10 to 50 nM; that for `Cc1n[nH]c(C)c1-c1c[nH]c2ncc(-c3ccc(S(=O)(=O)C(C)C)cc3)nc12` [Compound I-52, 7-(3,5-dimethyl-1H-pyrazol-4-yl)-2-(4-isopropylsulfonylphenyl)-5H-pyrrolo[2,3-b]pyrazine], above 50 nM. To `CC(C)S(=O)(=O)c1ccc(-c2cnc3[nH]cc(-c4ccc(N)nc4)c3n2)cc1` [Compound I-53, 5-[2-(4-isopropylsulfonylphenyl)-5H-pyrrolo[2,3-b]pyrazin-7-yl]pyridin-2-amine] belongs at most 10 nM. To `CC(C)S(=O)(=O)c1ccc(-c2cnc3[nH]cc(-c4cc5cc(Br)ccc5s4)c3n2)cc1` [Compound I-54, 7-(5-bromobenzothiophen-2-yl)-2-(4-isopropylsulfonylphenyl)-5H-pyrrolo[2,3-b]pyrazine] belongs above 50 nM; to `CC(C)S(=O)(=O)c1ccc(-c2cnc3[nH]cc(-c4cc5cc(F)ccc5n4C(=O)OC(C)(C)C)c3n2)cc1` [Compound I-56, tert-butyl 5-fluoro-2-[2-(4-isopropylsulfonylphenyl)-5H-pyrrolo[2,3-b]pyrazin-7-yl]indole-1-carboxylate], above 50 nM. Take `COc1ccc2c(c1)cc(-c1c[nH]c3ncc(-c4ccc(S(=O)(=O)C(C)C)cc4)nc13)n2C(=O)OC(C)(C)C` [Compound I-57, tert-butyl 2-[2-(4-isopropylsulfonylphenyl)-5H-pyrrolo[2,3-b]pyrazin-7-yl]-5-methoxy-indole-1-carboxylate]: the Ki is above 50 nM. To `CC(C)S(=O)(=O)c1ccc(-c2cnc3[nH]cc(-c4cc5c(Cl)cccc5n4C(=O)OC(C)(C)C)c3n2)cc1` [Compound I-58, tert-butyl 4-chloro-2-[2-(4-isopropylsulfonylphenyl)-5H-pyrrolo[2,3-b]pyrazin-7-yl]indole-1-carboxylate] belongs above 50 nM. The result for `CC(C)S(=O)(=O)c1ccc(-c2cnc3[nH]cc(-c4cn(S(=O)(=O)c5ccccc5)c5ccccc45)c3n2)cc1` [Compound I-59, 7-[1-(benzenesulfonyl)indol-3-yl]-2-(4-isopropylsulfonylphenyl)-5H-pyrrolo[2,3-b]pyrazine] reads above 50 nM. To `CC(C)S(=O)(=O)c1ccc(-c2cnc3[nH]cc(-c4cccnc4NC(=O)C(C)(C)C)c3n2)cc1` [Compound I-60, N-[3-[2-(4-isopropylsulfonylphenyl)-5H-pyrrolo[2,3-b]pyrazin-7-yl]-2-pyridyl]2,2-dimethyl-propanamide] belongs above 50 nM. As to `CC(C)S(=O)(=O)c1ccc(-c2cnc3[nH]cc(-c4cc5ccccc5n4C(=O)OC(C)(C)C)c3n2)cc1` [Compound I-61, tert-butyl 2-[2-(4-isopropylsulfonylphenyl)-5H-pyrrolo[2,3-b]pyrazin-7-yl]indole-1-carboxylate], the Ki is above 50 nM.

As for `CC(C)S(=O)(=O)c1ccc(-c2cnc3[nH]cc(-c4ccc(C(=O)O)s4)c3n2)cc1` [Compound I-62, 5-[2-(4-isopropylsulfonylphenyl)-5H-pyrrolo[2,3-b]pyrazin-7-yl]thiophene-2-carboxylic acid], the Ki was at most 10 nM. The result for `CC(C)S(=O)(=O)c1ccc(-c2cnc3[nH]cc(-c4sccc4C(=O)O)c3n2)cc1` [Compound I-63, 2-[2-(4-isopropylsulfonylphenyl)-5H-pyrrolo[2,3-b]pyrazin-7-yl]thiophene-3-carboxylic acid] reads 10 to 50 nM; that for `CC(C)S(=O)(=O)c1ccc(-c2cnc3[nH]cc(-c4csc(C(=O)O)c4)c3n2)cc1` [Compound I-64, 4-[2-(4-isopropylsulfonylphenyl)-5H-pyrrolo[2,3-b]pyrazin-7-yl]thiophene-2-carboxylic acid], at most 10 nM. The result for `CC(C)S(=O)(=O)c1ccc(-c2cnc3[nH]cc(-c4cncc(C(C)(C)O)c4)c3n2)cc1` [Compound I-66, 2-[5-[2-(4-isopropylsulfonylphenyl)-5H-pyrrolo[2,3-b]pyrazin-7-yl]-3-pyridyl]propan-2-ol] reads at most 10 nM. The result for `CC(C)S(=O)(=O)c1ccc(-c2cnc3[nH]cc(-c4ccc(-c5nnn[nH]5)cc4)c3n2)cc1` [Compound I-67, 2-(4-isopropylsulfonylphenyl)-7-[4-(1H-tetrazol-5-yl)phenyl]-5H-pyrrolo[2,3-b]pyrazine] reads above 50 nM.

These data come from patent publication US8623869B2, “Compounds useful as inhibitors of ATR kinase” (Vertex Pharmaceuticals Incorporated, priority 2010, dated 2014).
